# Assay results from patent US10716827B2 (priority 2015, dated 2020).
# Molecular target: GLP-1R (Homo sapiens, UniProt P43220)
# Sequence (P43220 24-463, species assumed): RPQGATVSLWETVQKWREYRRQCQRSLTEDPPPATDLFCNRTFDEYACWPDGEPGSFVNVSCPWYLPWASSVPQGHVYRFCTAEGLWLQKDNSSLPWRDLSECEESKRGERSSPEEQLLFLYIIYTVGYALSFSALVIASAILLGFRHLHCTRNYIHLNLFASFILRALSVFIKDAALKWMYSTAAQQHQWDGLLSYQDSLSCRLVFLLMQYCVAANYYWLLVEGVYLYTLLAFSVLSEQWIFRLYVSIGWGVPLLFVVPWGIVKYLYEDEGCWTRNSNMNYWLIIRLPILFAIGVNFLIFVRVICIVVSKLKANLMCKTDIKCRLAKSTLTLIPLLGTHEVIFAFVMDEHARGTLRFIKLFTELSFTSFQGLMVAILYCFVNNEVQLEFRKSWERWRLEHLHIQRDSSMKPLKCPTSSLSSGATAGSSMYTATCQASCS
substance,measurement,setting,value
HGEGTFTSDLS(Kazido)QMEEEAVRLFIENWLKNGGPSSGAPSSGAPPPS [compound 1],% Change in FRET at 100 nM,"100 nM, undigested",−12 ± 0.01%
same,potency compared to unmodified Ex-4,azido modification at K12,no significant reduction in potency
